Measured values from patent US9402846B2, “Combination of inhibitor of B-Raf and inhibitor of AKT in the treatment of cancer” (Novartis AG, priority 2009, dated 2016).

Experiments:
Assay type in all cases: cell-based
RKO = assay: Cell growth inhibition assay (Cell Titer Glo, 3 days); details: Homo sapiens, colon, BRAF V600E, KRAS WT, PIK3CA H1047R, mean ± std, read-out: IC50 Single Agent
Description: (§1) Human colon tumor lines, Colo205, DLD1, HCC2998, HCT15, HCT8, HT29, KM-12, LS1034, LS174T, NCI-H508, RKO, SW1417, SW1463, SW480, SW837 and T84, and human melanoma line A375 were from ATCC. A375PF11 was derived from A375, 12R5-1, 12R5-3, 12R8-1, 12R8-3, 16R5-2, 16R6-3 and 16R6-4 are single cell clones derived from mixed populations of A375PF11 cells that were selected to grow in Compound A to concentrations of 1200 and 1600 nM. All lines were cultured in RPMI 1640 medium containing 10% fetal bovine serum (FBS).
(§2) All cells were cultured for a minimum of 72 hours prior to cell plating. Cells were assayed in a 96-well tissue culture plate (NUNC 136102) of RPMI medium containing 10% FBS for all cells at 1,000 cells per well. Approximately 24 hours after plating, cells were exposed to ten, three-fold serial dilutions of compound or the combination of the two agents at a constant molar to molar ratio of 1:10 Compound A to Compound B in RPMI media containing 10% FBS. Cells were incubated in the presence of compounds for 3 days. ATP levels were determined by adding Cell Titer Glo® (Promega) according to the manufacturer's protocol. Briefly, Cell Titer Glo® was added each plate, incubated for 30 minutes then luminescent signal was read on the SpectraMax L plate reader with a 0.5 sec integration time.
(§3) Inhibition of cell growth was estimated after treatment with compound or combination of compounds for three days and comparing the signal to cells treated with vehicle (DMSO). Cell growth was calculated relative to vehicle (DMSO) treated control wells. […]

LS174T = assay: as above; details: Homo sapiens, colon, BRAF WT, KRAS G12D, PIK3CA H1047R, mean ± std, read-out: IC50 Single Agent
Description: as §1, §2, §3

A375PF11 = assay: as above; details: Homo sapiens, A375P-F11, melanoma, BRAF_V600E, KRAS WT, mean ± std, read-out: IC50 Single Agent
Description: as §1, §2, §3

SW480 = assay: as above; details: Homo sapiens; SW480, colon; BRAF WT, KRAS G12C, PIK3CA WT; mean ± std; read-out: IC50 Single Agent
Description: as §1, §2, §3

HCT15 = assay: as above; details: Homo sapiens, HCT-15; HCT15, colon; BRAF WT, KRAS G13D, PIK3CA D549N, E545K; mean ± std; read-out: IC50 Single Agent
Description: as §1, §2, §3

16R6-4 = assay: as above; details: Homo sapiens; 16R6-4, melanoma, Compound A resistant clone; BRAF_V600E, KRAS WT; mean ± std; read-out: IC50 Single Agent
Description: as §1, §2, §3

12R5-3 = assay: as above; details: Homo sapiens; 12R5-3, melanoma, Compound A resistant clone; BRAF_V600E, KRAS WT; mean ± std; read-out: IC50 Single Agent
Description: as §1, §2, §3

T84 = assay: as above; details: Homo sapiens; T84, colon; BRAF WT, KRAS G13D, PIK3CA E542K; mean ± std; read-out: IC50 Single Agent
Description: as §1, §2, §3

DLD1 = assay: as above; details: Homo sapiens, DLD-1; DLD1, colon; BRAF WT, KRAS G13D, PIK3CA E545K, D549N; mean ± std; read-out: IC50 Single Agent
Description: as §1, §2, §3

SW1463 = assay: as above; details: Homo sapiens; SW1463, colon; BRAF WT, KRAS G12C, PIK3CA WT; mean ± std; read-out: IC50 Single Agent
Description: as §1, §2, §3

Colo205 = assay: as above; details: Homo sapiens, COLO 205; Colo205, colon; BRAF V600E, KRAS WT, PIK3CA WT; mean ± std; read-out: IC50 Single Agent
Description: as §1, §2, §3

LS1034 = assay: as above; details: Homo sapiens, LS-1034; LS1034, colon; BRAF WT, KRAS A146T, PIK3CA WT; mean ± std; read-out: IC50 Single Agent
Description: as §1, §2, §3

SW837 = assay: as above; details: Homo sapiens; SW837, colon; BRAF WT, KRAS G12C, PIK3CA WT; mean ± std; read-out: IC50 Single Agent
Description: as §1, §2, §3

12R8-3 = assay: as above; details: Homo sapiens; 12R8-3, melanoma, Compound A resistant clone; BRAF_V600E, KRAS WT; mean ± std; read-out: IC50 Single Agent
Description: as §1, §2, §3

NCI-H508 = assay: as above; details: Homo sapiens, NCl-H508, colon, BRAF G596R, KRAS WT, PIK3CA E545K, mean ± std, read-out: IC50 Single Agent
Description: as §1, §2, §3

16R6-3 = assay: as above; details: Homo sapiens; 16R6-3, melanoma, Compound A resistant clone; BRAF_V600E, KRAS WT; mean ± std; read-out: IC50 Single Agent
Description: as §1, §2, §3

HCC2998 = assay: as above; details: Homo sapiens, HCC 2998; HCC2998, colon; BRAF WT, KRAS A146T, PIK3CA WT; mean ± std; read-out: IC50 Single Agent
Description: as §1, §2, §3

HCT8 = assay: as above; details: Homo sapiens, HCT-8; HCT8, colon; BRAF WT, KRAS G13D, PIK3CA E545K; mean ± std; read-out: IC50 Single Agent
Description: as §1, §2, §3

12R8-1 = assay: as above; details: Homo sapiens; 12R8-1, melanoma, Compound A resistant clone; BRAF_V600E, KRAS WT; mean ± std; read-out: IC50 Single Agent
Description: as §1, §2
(§4) Inhibition of cell growth was estimated after treatment with compound or combination of compounds for three days and comparing the signal to cells treated with vehicle (DMSO). Cell growth was calculated relative to vehicle (DMSO) treated control wells.
(§5) Combination effects on potency were evaluated using Combination Index (CI) which was calculated with the back-interpolated IC50 values and the mutually non-exclusive equation derived by Chou and Talalay (1): CI=Da/IC50(a)+Db/IC50(b)+(Da×Db)/(IC50(a)×IC50(b))
(§6) In general, a CI value <0.9, between 0.9 and 1.1, or >1.1 indicates synergy, additivity and antagonism, respectively. In general, the smaller the CI number, the greater is the strength of synergy.
(§7) The combination effects on the response scale were quantified by Excess Over Highest Single Agent (EOHSA) based on the concept of nonlinear blending as described in detail by Peterson and Novick (2007) and Peterson (2010) [(2;3) [Peterson and Novick, 2007; Peterson, 2010]. EOHSA values are defined as increases in improvement (here, in ‘percentage points’ (ppts) difference) produced by the combination over the best single agent at its component dose level for the combination. For single agent and combination treatments, cells were exposed to compounds at a fixed-dose-ratio, and dose response curves were fit to the experimental data and analyzed using regression models. At specified total dose levels of IC50 along the dose response curve, the dose combination (corresponding to IC50) was determined for making EOHSA statistical inferences.

HT29 = assay: as above; details: Homo sapiens, HT-29; HT29, colon; BRAF V600E, KRAS WT, PIK3CA P449T; mean ± std; read-out: IC50 Single Agent
Description: as §1, §2, §4, §5, §6, §7

12R5-1 = assay: as above; details: Homo sapiens; 12R5-1, melanoma, Compound A resistant clone; BRAF_V600E, KRAS WT; mean ± std; read-out: IC50 Single Agent
Description: as §1, §2, §4, §5, §6, §7

16R5-2 = assay: as above; details: Homo sapiens; 16R5-2, melanoma, Compound A resistant clone; BRAF_V600E, KRAS WT; mean ± std; read-out: IC50 Single Agent
Description: as §1, §2, §4, §5, §6, §7

SW1417 = assay: as above; details: Homo sapiens; SW1417, colon; BRAF V600E, KRAS WT, PIK3CA WT; mean ± std; read-out: IC50 Single Agent
Description: as §1, §2, §4, §5, §6, §7

KM-12 = assay: as above; details: Homo sapiens, KM12; KM-12, colon; BRAF WT, KRAS WT, PIK3CA WT; mean ± std; read-out: IC50 Single Agent
Description: as §1, §2, §4, §5, §6, §7

[1] = test system: four colon cell lines with BRAF V600E mutation; assay: Cell growth inhibition assay (Cell Titer Glo, 3 days), summary over lines; details: Homo sapiens; span over the four colon cell lines with BRAF V600E mutation; single agent
Description: (§8) Human colon tumor lines, Colo205, DLD1, HCC2998, HCT15, HCT8, HT29, KM-12, LS1034, LS174T, NCI-H508, RKO, SW1417, SW1463, SW480, SW837 and T84, and human melanoma line A375 were from ATCC.
(§9) All cells were cultured for a minimum of 72 hours prior to cell plating. […] Cells were incubated in the presence of compounds for 3 days. ATP levels were determined by adding Cell Titer Glo® (Promega) according to the manufacturer's protocol. Briefly, Cell Titer Glo® was added each plate, incubated for 30 minutes then luminescent signal was read on the SpectraMax L plate reader with a 0.5 sec integration time.
as §4, §5, §6
as §7, with “EOHSA” for “The combination effects on the response scale were quantified by Excess Over Highest Single Agent (EOHSA) based on the concept of nonlinear blending as described in detail by Peterson and Novick (2007) and Peterson (2010) [(2;3) [Peterson and Novick, 2007; Peterson, 2010]. EOHSA”

[2] = test system: 12 colon lines without BRAF V600E mutation; assay: as above; details: Homo sapiens; the other 12 colon lines without BRAF V600E mutation; single agent
Description: as §8, §9, §4, §5, §6
as §7, with “EOHSA” for “The combination effects on the response scale were quantified by Excess Over Highest Single Agent (EOHSA) based on the concept of nonlinear blending as described in detail by Peterson and Novick (2007) and Peterson (2010) [(2;3) [Peterson and Novick, 2007; Peterson, 2010]. EOHSA”

[3] = test system: seven Compound A resistant clones derived from the A375PF11 melanoma cell line; assay: Cell growth inhibition assay (Cell Titer Glo, 3 days), summary over clones; details: Homo sapiens, A375P-F11; seven Compound A resistant clones (12R8-3, 12R8-1, 12R5-3, 16R5-2, 16R6-3, 16R6-4, 12R5-1); single agent
Description: as §1
All cells were cultured for a minimum of 72 hours prior to cell plating. […] ATP levels were determined by adding Cell Titer Glo® (Promega) according to the manufacturer's protocol. Briefly, Cell Titer Glo® was added each plate, incubated for 30 minutes then luminescent signal was read on the SpectraMax L plate reader with a 0.5 sec integration time.
as §4
Combination effects on potency were evaluated using Combination Index (CI) which was calculated with the back-interpolated IC50 values and the mutually non-exclusive equation derived by Chou and Talalay (1): CI=Da/IC50(a)+Db/IC50(b)+(Da×Db)/(IC50(a)×IC50(b)) […]

Compound | IC50 (RKO) | IC50 (LS174T) | IC50 (A375PF11) | IC50 (SW480) | IC50 (HCT15) | IC50 (16R6-4) | IC50 (12R5-3) | IC50 (T84) | IC50 (DLD1) | IC50 (SW1463) | IC50 (Colo205) | IC50 (LS1034) | IC50 (SW837) | IC50 (12R8-3) | IC50 (NCI-H508) | IC50 (16R6-3) | IC50 (HCT8) | IC50 (12R8-1) | IC50 (HT29) | IC50 (12R5-1) | also measured
CC(C)(C)c1nc(-c2cccc(NS(=O)(=O)c3c(F)cccc3F)c2F)c(-c2ccnc(N)n2)s1 [Compound A, N-{3-[5-(2-Amino-4-pyrimidinyl)-2-(1,1-dimethylethyl)-1,3-thiazol-4-yl]-2-fluorophenyl}-2,6-difluorobenzenesulfonamide] | 3.14 ± 3.47 µM | > 10 µM | 0.063 µM | > 10 µM | > 10 µM | > 10 µM | > 10 µM | > 10 µM | > 10 µM | > 10 µM | 0.018 ± 0.003 µM | > 10 µM | 5.44 ± 7.69 µM | > 10 µM | > 10 µM | > 10 µM | > 10 µM | > 10 µM | 0.028 ± 0.007 µM | > 10 µM | IC50 (HCC2998): > 10 µM; IC50 (16R5-2): > 10 µM; IC50 (SW1417): 0.101 ± 0.031 µM; IC50 (KM-12): > 10 µM; IC50 [1]: 0.018 to 3.32 µM; IC50 [2]: > 5 µM
Cn1ncc(Cl)c1-c1cc(C(=O)N[C@H](CN)Cc2ccc(F)c(F)c2)oc1Cl [Compound B, N-{(1S)-2-amino-1-[(3,4-difluorophenyl)methyl]ethyl}-5-chloro-4-(4-chloro-1-methyl-1H-pyrazol-5-yl)-2-furancarboxamide] | 0.29 ± 0.07 µM | 3.75 ± 0.945 µM | > 10 µM | 5.62 ± 1.85 µM | 4.21 ± 0.834 µM | > 10 µM | > 10 µM | > 10 µM | > 10 µM | 5.23 ± 7.4 µM | 0.908 ± 0.605 µM | 6.39 ± 3.55 µM | > 10 µM | > 10 µM | 0.234 ± 0.247 µM | > 10 µM | 0.527 ± 0.036 µM | > 10 µM | 0.503 ± 0.073 µM | > 10 µM | IC50 (16R5-2): 7.05 ± 1.33 µM; IC50 (SW1417): 2.59 ± 1.76 µM; IC50 (KM-12): 1.41 ± 0.961 µM; IC50 [1]: 0.29 to 2.59 µM; IC50 [3]: ≥ 7 µM
